From ChEMBL document CHEMBL1201862, “PubChem BioAssay data set” (2004)
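Assay format: 96-well plates, 48-hour exposure. The concentration for 50% growth inhibition is given as GI50.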 Calls of active or inactive are those of the source. No stated cut-off is given here; in the data, active = GI50 up to about 1.1 µM and inactive = higher.

How the values were obtained:
Assay in all cases: growth of human tumour cells (NCI), 48 h
[1] = system: A498
[2] = system: A549
[3] = system: CAKI-1
[4] = system: EKVX
[5] = system: HCT-15
[6] = system: IGROV-1
[7] = system: M14
[8] = system: MDA-N
[9] = system: NCI-H23
[10] = system: OVCAR-3
[11] = system: OVCAR-4
[12] = system: OVCAR-8
[13] = system: RPMI-8226
[14] = system: SF-268
[15] = system: SF-539
[16] = system: SK-OV-3
[17] = system: SW-620
[18] = system: UACC-257
[19] = system: CCRF-CEM
[20] = system: SK-MEL-2

Measured: GI50

CCOC(=O)/C(C#N)=C/c1ccc(CO)o1
> 100 µM: [5]
inactive: [1] > 100 µM | [2] > 100 µM | [3] > 100 µM | [4] > 100 µM | [6] > 100 µM | [7] > 100 µM | [8] > 100 µM | [9] > 100 µM | [10] > 100 µM | [11] > 100 µM | [12] > 100 µM | [13] > 100 µM | [14] > 100 µM | [15] > 100 µM | [16] > 100 µM | [17] > 100 µM | [18] > 100 µM

COc1c(OC)c(OC)c2c(=O)c(OC)c(-c3ccc4c(c3)OCO4)oc2c1OC
78.5 µM: [5]
inactive: [1] 66.2 µM | [2] 53.2 µM | [3] > 100 µM | [19] 23.8 µM | [4] 82.8 µM | [6] > 100 µM | [7] > 100 µM | [8] > 100 µM | [9] > 100 µM | [10] > 100 µM | [11] > 100 µM | [12] 61 µM | [14] > 100 µM | [15] > 100 µM | [20] > 100 µM | [16] > 100 µM | [17] > 100 µM | [18] > 100 µM

COC(=O)c1ccccc1C1CN=NC12Cc1cc3c(cc1C2=O)CCC3 (stereo unspecified)
inactive: [1] > 100 µM | [2] 63.4 µM | [3] > 100 µM | [19] 29.2 µM | [4] 74.5 µM | [6] > 100 µM | [7] 49.4 µM | [8] 40.7 µM | [9] 33.3 µM | [10] 82.4 µM | [11] 44.6 µM | [12] 48.2 µM | [14] 62.4 µM | [15] > 100 µM | [20] > 100 µM | [16] 86.9 µM | [17] 67.6 µM | [18] 40.6 µM
> 100 µM: [5]

CN(C)CCNC(=O)c1cccc(CO)c1[N+](=O)[O-]
> 100 µM: [5]
inactive: [1] > 100 µM | [2] > 100 µM | [3] > 100 µM | [19] > 100 µM | [6] > 100 µM | [7] > 100 µM | [8] > 100 µM | [9] > 100 µM | [10] > 100 µM | [12] > 100 µM | [14] > 100 µM | [15] > 100 µM | [20] > 100 µM | [16] > 100 µM | [17] > 100 µM | [18] > 100 µM

Cc1c(-c2ccccn2)ccc2ccccc12
27.7 µM: [5]
inactive: [1] > 100 µM | [2] 69.5 µM | [3] 45 µM | [19] 28.2 µM | [4] 52.6 µM | [7] > 100 µM | [8] 61 µM | [9] 90.2 µM | [10] 41.4 µM | [12] 26.4 µM | [13] 19 µM | [14] 54 µM | [15] > 100 µM | [16] > 100 µM | [17] 80.4 µM | [18] > 100 µM

CCOC(=O)c1nc2ccc(C(F)(F)F)cc2nc1Nc1ccc(OC)c(OC)c1
inactive: [1] > 100 µM | [2] > 100 µM | [3] 24.5 µM | [19] > 100 µM | [4] > 100 µM | [6] > 100 µM | [7] > 100 µM | [8] > 100 µM | [9] > 100 µM | [10] > 100 µM | [12] > 100 µM | [13] > 100 µM | [14] 78.2 µM | [15] 98.6 µM | [16] 60 µM | [17] > 100 µM | [18] > 100 µM
> 100 µM: [5]

CC(=O)/C(=C/n1ccc(=O)[nH]c1=S)C(=O)Nc1ccccc1C
inactive: [1] > 100 µM | [2] > 100 µM | [3] > 100 µM | [4] > 100 µM | [6] > 100 µM | [7] > 100 µM | [8] > 100 µM | [9] > 100 µM | [10] > 100 µM | [11] > 100 µM | [12] > 100 µM | [14] > 100 µM | [15] > 100 µM | [20] > 100 µM | [16] > 100 µM | [17] > 100 µM | [18] > 100 µM
> 100 µM: [5]

CN(C)c1ccc(C2C(Cl)C(=O)N2NC(=O)c2c(Cl)c(Cl)c(Cl)c(Cl)c2-c2nc3ccccc3[nH]2)cc1 (stereo unspecified)
inactive: [1] 22.3 µM | [2] 31.6 µM | [3] 15.6 µM | [19] 3.36 µM | [4] 18.3 µM | [6] 1.62 µM | [7] 13.3 µM | [8] 5.77 µM | [9] 12.5 µM | [10] 19.4 µM | [12] 2.4 µM | [14] 11.5 µM | [15] 7.89 µM | [20] 21.8 µM | [16] 33.7 µM | [17] 4.29 µM | [18] 20.5 µM
12.9 µM: [5]

N#Cc1cnn2cc[nH]c12
inactive: [1] > 100 µM | [2] > 100 µM | [3] > 100 µM | [19] > 100 µM | [4] > 100 µM | [6] > 100 µM | [7] > 100 µM | [8] > 100 µM | [9] > 100 µM | [10] > 100 µM | [11] > 100 µM | [12] > 100 µM | [14] > 100 µM | [15] 10 µM | [20] > 100 µM | [16] > 100 µM | [17] > 100 µM | [18] > 100 µM
> 100 µM: [5]

CCCCN(CCCC)C1(c2cc3ccccc3s2)CCCCC1.[O-][Cl+3]([O-])([O-])O
inactive: [1] 19.3 µM | [2] 18.2 µM | [3] 18.7 µM | [19] 12.1 µM | [4] 21.1 µM | [6] 15.5 µM | [7] 14.6 µM | [8] 15.4 µM | [9] 15.5 µM | [10] 15.7 µM | [11] 15.4 µM | [12] 18.7 µM | [14] 19.2 µM | [15] 19.1 µM | [20] 19.8 µM | [16] 20.4 µM | [17] 15 µM | [18] 18.1 µM
15.5 µM: [5]

O=C1Nc2ccccc2/C1=C1/Nc2ccccc2/C1=N\OCCOC1OCC(O)C(O)C1O (stereo unspecified)
> 100 µM: [5]
inactive: [2] > 100 µM | [3] 6.78 µM | [19] > 100 µM | [4] > 100 µM | [6] 5.35 µM | [7] 43.4 µM | [8] > 100 µM | [9] > 100 µM | [10] > 100 µM | [11] > 100 µM | [12] > 100 µM | [13] > 100 µM | [14] > 100 µM | [15] > 100 µM | [20] 3.49 µM | [16] 1.68 µM | [17] > 100 µM | [18] > 100 µM
